ChEMBL document CHEMBL1821712, “Antimalarial β-carbolines from the New Zealand ascidian Pseudodistoma opacum” (J Nat Prod, 2011)

How the values were obtained:
[1] = tested on: Trypanosoma brucei rhodesiense; assay: Antiparasitic activity against Trypanosoma brucei rhodesiense STIB 900 trypomastigotes stage forms incubated for 72 hrs by Alamar blue staining based fluorometric assay; format: functional, organism-based; conditions: STIB 900, 72 h
Trypanosoma cruzi = assay: Antiparasitic activity against Trypanosoma cruzi Tulahuen C4 amastigotes stage forms incubated for 96 hrs by beta-galactosidase reporter gene assay; format: functional, organism-based; conditions: Tulahuen C4, 96 h
Leishmania donovani = assay: Antiparasitic activity against Leishmania donovani MHOM/ET/67/L82 amastigotes/axenic stage forms incubated for 72 hrs by Alamar Blue staining based fluorometric assay; format: functional, organism-based; conditions: MHOM/ET/67/L82, 72 h
L6 = assay: Cytotoxicity against rat L6 cells incubated for 72 hrs by Alamar Blue staining based fluorometric assay; format: cell-based; conditions: L6, 72 h
Plasmodium falciparum [2] = assay: Antiparasitic activity against Plasmodium falciparum K1 IEF stage forms incubated for 72 hrs by Alamar Blue staining based fluorometric assay; conditions: K1, 72 h
Plasmodium falciparum [3] = assay: Antiparasitic activity against chloroquine-resistant Plasmodium falciparum Dd2; format: functional, organism-based
Plasmodium falciparum [4] = assay: Antiparasitic activity against chloroquine-sensitive Plasmodium falciparum 3D7; format: functional, organism-based

Row | IC50 [1] | IC50 (Trypanosoma cruzi) | Structure (SMILES) | IC50 (Leishmania donovani) | IC50 (L6) | IC50 (Plasmodium falciparum [2]) | IC50 (Plasmodium falciparum [3]) | IC50 (Plasmodium falciparum [4])
1 | 12 µM | 110 µM | N=C(N)NCCCCc1nccc2c1[nH]c1ccccc12 | > 200 µM | 84 µM | 6.4 µM |  | 
2 | 7.7 µM | 130 µM | N=C(N)NCCCc1nccc2c1[nH]c1ccccc12 | > 200 µM | 101 µM | 7.8 µM |  | 
3 | 17 µM | 51 µM | O=C1c2ccccc2C(=O)N1CCCC1NCCc2c1[nH]c1ccccc21 (stereo not given) | 150 µM | 110 µM | 14 µM |  | 
4 |  |  | N=C(N)NCCC[C@H]1NCCc2c1[nH]c1cc(Br)ccc21 |  |  |  | 5.4 µM | 3.5 µM
5 |  |  | CCCCCCCCCCCCCCCCOP(=O)([O-])OCC[N+](C)(C)C [MILTEFOSINE] | 0.53 µM |  |  |  | 
6 | 30 µM | 86 µM | N=C(N)NCCCCc1nccc2c1[nH]c1cc(Br)ccc12 [OPACALINE A] | 130 µM | 79 µM | 2.5 µM |  | 
7 | 27 µM | 107 µM | N=C(N)NCCCCc1nccc2c3ccc(Br)cc3n(O)c12 [OPACALINE B] | 101 µM | 120 µM | 4.5 µM |  | 
8 |  |  | COc1cc([C@@H]2c3cc4c(cc3[C@H](O)[C@H]3COC(=O)[C@H]23)OCO4)cc(OC)c1OC [PODOFILOX] |  | 0.019 µM |  |  | 

Row | Structure (SMILES) | IC50 [1] | IC50 (Trypanosoma cruzi) | IC50 (Leishmania donovani) | IC50 (L6) | IC50 (Plasmodium falciparum [2]) | IC50 (Plasmodium falciparum [3]) | IC50 (Plasmodium falciparum [4])
9 | O=C(Cn1ccnc1[N+](=O)[O-])NCc1ccccc1 [BENZNIDAZOLE] |  | 1.8 µM |  |  |  |  | 
